Like-named read-outs stand apart in the source and are kept apart here.
Assays:
[1] = system: cultivar Borlotto of Vigevano bean plants; format: in vivo, bean plant; parameters: key: 100 = healthy plant, 0 = completely necrotic/decoloured
Procedure: After 7 days in a conditioned environment, the intensity of the necrosis or leaf decolouring is evaluated with an evaluation scale from 100 (healthy plant) to 0 (plant completely infected with necrosis or decoloured).

[2] = system: Plasmopara viticola; settings: in vivo
Procedure: After remaining 7 days in a conditioned environment, the plants were infected on the lower side with an aqueous suspension of Plasmorpara viticola spores (200,000 spores per cm^3).
(§1) The plants were kept in a humidity saturated environment, at 21° C., for the incubation period of the fungus and, at the end of this period (7 days), the fungicidal activity is evaluated according to an evaluation percentage scale from 100 (healthy plant) to 0 (completely infected plant).
E is the expected fungicidal activity, in the absence of synergetic effects, from a blend obtained by mixing g.x of the compound X with g.y of the compound Y;
x is the activity of compound X when used alone at a dose of g.x;
y is the activity of compound Y when used alone at a dose of g.y.
When the fungicidal activity found experimentally is greater than the value of E, said activity should be considered as being a synergetic effect.

[3] = system: cultivar Merlot vines; test: Undesired effects (necrosis or leaf decolouring) on vines in the Plasmopara viticola greenhouse test; settings: in vivo
Procedure: Leaves of cultivar Merlot vines, grown in vases, in a conditioned environment (20±1° C., 70% relative humidity), were treated by spraying both sides of the leaves with the blends in question dispersed in an aqueous solution containing 0.3% of tween 20.

[4] = system: Peronospora tabacina; test: Control of Peronospora Tabacina on tobacco in preventive leaf application (greenhouse test); format: in vivo
Procedure: After remaining 7 days in a conditioned environment, the plants were infected on the lower side with an aqueous suspension of Peronospora Tabacina spores (200,000 spores per cm^3).
as §1, with “After remaining 24 hours” for “The plants were kept”, “C., the plants were transferred to another conditioned environment” for “C.,”

[5] = system: cultivar Burley tobacco plants; settings: in vivo
Procedure: Leaves of cultivar Burley tobacco plants, grown in vases, in a conditioned environment (20±1° C., 70% relative humidity), were treated by spraying both sides of the leaves with the blends in question dispersed in an aqueous solution containing 0.3% of tween 20.
Undesired effects refer to the appearance of necrosis or leaf decolouring.

[6] = 125 ppm of each component, 7 days after leaf spraying, bean plant

Molecule	Activity (y) [2]	also measured
O=C(O)c1ccccc1[O-].O=C(O)c1ccccc1[O-].[Cu+2] [Cu^2+ SA, copper (II) salt of salicylic acid]	–	Leaf decolouring ([1]; in vivo): 5; Leaf necrosis ([1]; in vivo): 55
silicic acid	14	–
copper phthalocyanine [Cu (II) Phthalocyanine]	10	Undesired effects [3]: 0
O=C(O)c1ccccc1[O-].O=C(O)c1ccccc1[O-].[Cu+2] [Cu^2+SA2, copper (II) salt of salicylic acid]	–	Leaf decolouring ([1]; in vivo): 5; Leaf necrosis ([1]; in vivo): 42
[O]=[Zn] [ZnO, zinc oxide]	30	Activity (y) ([4]; in vivo): 15
O=C1NS(=O)(=O)c2ccccc21 [Saccharin, saccharin]	30	–
O=S(=O)([O-])[O-].[Zn+2] [ZnSO4, zinc sulphate]	22	Activity (y) ([4]; in vivo): 20
O=c1ccc2ccccc2o1 [Cumarine]	10	–
FeNH4SO4	18	–
O=C([O-])[C@H](O)[C@@H](O)[C@H](O)[C@H](O)CO.O=C([O-])[C@H](O)[C@@H](O)[C@H](O)[C@H](O)CO.[Fe+2] [Fe (II) gluconate]	28	–
O=S(=O)([O-])[O-].[Cu+2] [CuSO4, copper sulphate]	48	Activity (y) ([4]; in vivo): 45
[Fe+2].c1ccc2c(c1)-c1nc-2nc2[n-]c(nc3nc(nc4[n-]c(n1)c1ccccc41)-c1ccccc1-3)c1ccccc21 [Fe (II) phthalocyanine, iron phthalocyanine]	14	–
O=S(=O)([O-])[O-].[Fe+2] [FeSO4, iron sulphate]	40	Activity (y) ([4]; in vivo): 15
[C-]#N.[C-]#N.[C-]#N.[C-]#N.[C-]#N.[C-]#N.[C-]#N.[C-]#N.[C-]#N.[C-]#N.[C-]#N.[C-]#N.[C-]#N.[C-]#N.[C-]#N.[C-]#N.[C-]#N.[C-]#N.[Fe+2].[Fe+2].[Fe+2].[Fe+3].[Fe+3].[Fe+3].[Fe+3] [Prussian blue]	13	–
O=c1ccc2cc(O[C@@H]3O[C@H](CO)[C@@H](O)[C@H](O)[C@H]3O)c(O)cc2o1 [Esculine, esculin]	10	–
Fe(III) glutamate	16	–
CC(N)CC(=O)O (stereo not drawn) [BABA, β-aminobutyric acid, reference compound]	–	Leaf decolouring [1, 6]: 15; Leaf necrosis [1, 6]: 30
[Cl-].[Cu+2].[Cu+2].[OH-].[OH-].[OH-] [Cu oxychloride, cuprum oxychloride]	18	–
[Cl-].[Cl-].[Cu+2].[Cu+2].[Cu+2].[Cu+2].[OH-].[OH-].[OH-].[OH-].[OH-].[OH-] [Tetracopper oxychloride]	28	–
O=C(O)c1cc(Cl)nc(Cl)c1 [INA, 2,6-dichloroisonicotinic acid, reference compound]	–	Leaf decolouring [1, 6]: 10; Leaf necrosis [1, 6]: 50
titanium dioxide [TiO2]	24	Undesired effects [5]: 0; Activity (y) ([4]; Table 5, compound alone at dose g.y ppm Equivalent Metal: TiO2 24, FeSO4 28, ZnSO4 33, CuSO4 32, ZnO 33): 5
[Cu+2].[OH-].[OH-] [Cu hydroxide, cuprum hydroxyde]	34	–
